The values below come from patent US20220211877A1, “COMPOUND FOR INTRAOPERATIVE MOLECULAR BIOIMAGING, METHOD OF MAKING THE SAME, USE THEREOF IN INTRAOPERATIVE MOLECULAR BIOIMAGING AND SURGICAL METHOD COMPRISING INTRAOPERATIVE MOLECULAR BIOIMAGING” (Klinikum rechts der lsar der Techischen Universität München, priority 2018, published 2022).

Data set [1] can be described thus: biodistribution by fluorescence intensity in HNSCC PDX mice. The protocol:
Relying on fluorescence intensity measurements, the distribution and accumulation of FRX103 in the organism was determined over the time period shown.

The nature of data set [2]: biodistribution and nonspecific binding in control animals (control TX, sham TX, unoperated). The settings on record: for renal clearance: 6 h after injection. The protocol: Similarly, healthy oral epithelium was transplanted for control experiments.
Control experiments were performed with sham operations and transplantation with healthy control tissue, which were imaged with FRX110 and FRX109 as the control tracer.
The specificity of the binding was investigated in the in vivo model with the control tracer FRX109. FRX109 was visualized in mice with a sham graft (sham TX) of human carcinoma tissue (no tissue was transplanted).

The target of data set [3] is αvβ8 (Homo sapiens, UniProt P06756+P26012). The data set can be described thus: solid-phase integrin binding assay. The settings on record: n = 2.
Chain of αvβ8 (P06756 31-889 limits assumed): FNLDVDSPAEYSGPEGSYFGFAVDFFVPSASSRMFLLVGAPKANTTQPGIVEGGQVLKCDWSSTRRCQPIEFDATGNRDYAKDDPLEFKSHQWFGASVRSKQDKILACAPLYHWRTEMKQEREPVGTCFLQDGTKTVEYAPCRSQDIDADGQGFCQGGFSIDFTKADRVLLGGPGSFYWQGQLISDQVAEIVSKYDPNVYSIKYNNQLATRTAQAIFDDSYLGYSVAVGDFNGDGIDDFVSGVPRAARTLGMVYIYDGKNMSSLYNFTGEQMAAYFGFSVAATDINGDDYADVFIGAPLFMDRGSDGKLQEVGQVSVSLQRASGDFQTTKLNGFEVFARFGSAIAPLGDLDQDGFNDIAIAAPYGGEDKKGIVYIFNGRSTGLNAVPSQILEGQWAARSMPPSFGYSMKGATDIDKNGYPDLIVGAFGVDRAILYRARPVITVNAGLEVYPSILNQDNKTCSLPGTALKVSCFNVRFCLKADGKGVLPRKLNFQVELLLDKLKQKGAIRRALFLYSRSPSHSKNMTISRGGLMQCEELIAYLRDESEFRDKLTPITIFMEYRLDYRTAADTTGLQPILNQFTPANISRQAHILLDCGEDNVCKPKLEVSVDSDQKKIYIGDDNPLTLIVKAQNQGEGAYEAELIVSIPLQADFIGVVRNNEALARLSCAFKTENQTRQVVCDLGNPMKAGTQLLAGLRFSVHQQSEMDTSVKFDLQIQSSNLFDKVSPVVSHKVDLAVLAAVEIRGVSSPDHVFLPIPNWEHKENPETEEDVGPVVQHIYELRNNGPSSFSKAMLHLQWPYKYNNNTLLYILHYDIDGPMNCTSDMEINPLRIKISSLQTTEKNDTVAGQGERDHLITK
Chain of αvβ8 (P06756 891-992 partner limits assumed): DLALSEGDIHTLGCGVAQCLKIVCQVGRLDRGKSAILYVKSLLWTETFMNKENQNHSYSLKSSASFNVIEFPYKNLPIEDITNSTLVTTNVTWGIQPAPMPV
Chain of αvβ8 (P26012 43-684 limits assumed): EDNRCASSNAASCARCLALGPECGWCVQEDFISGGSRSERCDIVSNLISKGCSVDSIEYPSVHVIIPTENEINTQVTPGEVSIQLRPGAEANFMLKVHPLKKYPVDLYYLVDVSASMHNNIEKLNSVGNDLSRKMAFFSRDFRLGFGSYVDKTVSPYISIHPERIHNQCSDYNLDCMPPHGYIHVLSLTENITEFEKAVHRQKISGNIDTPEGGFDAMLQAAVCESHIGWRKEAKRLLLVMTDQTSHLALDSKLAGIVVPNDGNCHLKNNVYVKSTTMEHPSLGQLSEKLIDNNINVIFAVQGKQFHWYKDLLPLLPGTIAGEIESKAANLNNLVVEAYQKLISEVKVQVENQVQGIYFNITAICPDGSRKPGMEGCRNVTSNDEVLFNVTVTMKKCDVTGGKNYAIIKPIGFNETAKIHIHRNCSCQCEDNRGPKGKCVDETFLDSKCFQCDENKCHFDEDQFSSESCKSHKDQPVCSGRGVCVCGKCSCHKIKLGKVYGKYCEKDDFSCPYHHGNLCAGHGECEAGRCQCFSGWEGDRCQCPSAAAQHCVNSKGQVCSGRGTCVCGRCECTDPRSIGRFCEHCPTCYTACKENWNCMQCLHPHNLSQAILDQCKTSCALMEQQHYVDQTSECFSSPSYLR
Data set [4] has as its target α5β1 (Homo sapiens, UniProt P05556+P08648). The data set can be described thus: solid-phase integrin binding assay. The following applies: n = 2.
For data set [5], the target named is αvβ3 (Homo sapiens, UniProt P05106+P06756). The data set can be described thus: solid-phase integrin binding assay. The following applies: n = 2.
Chain of αvβ3 (P06756 31-889 limits assumed): as the sequence (P06756 31-889 limits assumed) above
Chain of αvβ3 (P06756 891-1048 partner limits assumed): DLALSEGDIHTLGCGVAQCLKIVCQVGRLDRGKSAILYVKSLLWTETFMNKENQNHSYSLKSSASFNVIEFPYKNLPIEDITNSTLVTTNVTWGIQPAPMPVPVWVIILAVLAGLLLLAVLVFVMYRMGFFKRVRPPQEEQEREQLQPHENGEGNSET
Chain of αvβ3 (P05106 27-788): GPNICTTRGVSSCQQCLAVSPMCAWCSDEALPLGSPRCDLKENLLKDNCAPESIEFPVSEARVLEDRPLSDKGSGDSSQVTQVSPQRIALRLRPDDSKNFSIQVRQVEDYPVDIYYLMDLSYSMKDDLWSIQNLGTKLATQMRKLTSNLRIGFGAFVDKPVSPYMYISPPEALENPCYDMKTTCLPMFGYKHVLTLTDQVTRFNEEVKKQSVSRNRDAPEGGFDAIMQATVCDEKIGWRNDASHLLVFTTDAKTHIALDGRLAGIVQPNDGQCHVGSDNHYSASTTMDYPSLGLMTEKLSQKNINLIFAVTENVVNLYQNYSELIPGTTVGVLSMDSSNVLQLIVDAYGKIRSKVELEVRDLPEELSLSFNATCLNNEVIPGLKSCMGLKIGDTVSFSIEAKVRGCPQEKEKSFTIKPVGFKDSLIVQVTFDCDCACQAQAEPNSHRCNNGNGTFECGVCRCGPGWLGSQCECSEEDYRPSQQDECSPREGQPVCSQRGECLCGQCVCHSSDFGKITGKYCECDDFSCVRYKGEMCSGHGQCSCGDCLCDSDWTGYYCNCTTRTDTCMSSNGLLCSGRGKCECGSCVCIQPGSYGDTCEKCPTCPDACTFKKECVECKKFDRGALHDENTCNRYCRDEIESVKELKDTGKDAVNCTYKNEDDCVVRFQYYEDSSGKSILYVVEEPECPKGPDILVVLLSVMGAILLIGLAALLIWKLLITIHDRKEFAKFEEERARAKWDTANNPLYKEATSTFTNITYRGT
Data set [6] has as its target αvβ5 (Homo sapiens, UniProt P06756+P18084). Kind of data set: solid-phase integrin binding assay. The settings on record: n = 2. The protocol: (§1) The integrin binding affinity and selectivity profile of the compounds was determined by a solid-phase binding assay as previously described.^48
Data set [7] deals with αIIbβ3 (Homo sapiens, UniProt P05106+P08514). The data set can be described thus: solid-phase integrin binding assay. The following applies: n = 2. How it is done:
as §1

The target of data set [8] is αvβ6 (Homo sapiens, UniProt P06756+P18564). Kind of data set: solid-phase integrin binding assay. The settings on record: n = 2.
Chain of αvβ6 (P06756 31-889 limits assumed): as the sequence (P06756 31-889 limits assumed) above
Chain of αvβ6 (P06756 891-992 partner limits assumed): as the sequence (P06756 891-992 partner limits assumed) above
Chain of αvβ6 (P18564 22-707 limits assumed): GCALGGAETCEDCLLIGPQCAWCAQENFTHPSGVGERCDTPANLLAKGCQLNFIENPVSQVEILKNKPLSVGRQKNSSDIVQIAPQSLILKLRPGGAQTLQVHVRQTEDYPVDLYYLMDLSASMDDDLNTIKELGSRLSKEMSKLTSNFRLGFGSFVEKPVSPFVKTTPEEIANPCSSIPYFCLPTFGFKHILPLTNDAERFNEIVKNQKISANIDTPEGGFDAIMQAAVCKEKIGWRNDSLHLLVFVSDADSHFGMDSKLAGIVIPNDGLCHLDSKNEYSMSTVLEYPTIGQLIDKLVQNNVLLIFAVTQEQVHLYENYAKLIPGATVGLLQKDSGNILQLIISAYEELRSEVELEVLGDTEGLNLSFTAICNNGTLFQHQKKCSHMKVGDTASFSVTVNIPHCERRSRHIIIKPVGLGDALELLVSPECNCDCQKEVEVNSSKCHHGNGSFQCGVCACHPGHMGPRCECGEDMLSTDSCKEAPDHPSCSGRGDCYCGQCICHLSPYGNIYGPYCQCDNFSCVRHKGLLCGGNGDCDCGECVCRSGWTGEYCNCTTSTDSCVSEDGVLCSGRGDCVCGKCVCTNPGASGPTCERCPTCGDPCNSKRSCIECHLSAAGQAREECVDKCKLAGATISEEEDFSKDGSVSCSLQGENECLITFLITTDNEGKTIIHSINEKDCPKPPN
Data set [9] relates to invasive HNSCC tissue. The data set can be described thus: molecular bioimaging in HNSCC PDX mouse model. It is filed as in vivo, NOD/SCID mice. How it is done: An orthotopic HNSCC PDX (head and neck squamous cell carcinoma patient derived xenotransplant) mouse model was developed that allows the analysis of invasive, orthotropic human carcinoma tissue. HNSCC tissue samples were transplanted into the neck area of NOD/SCID mice. This provides epithelial derived carcinoma tissue in a mesenchymal tissue context to mimic the epithelial-mesenchymal interface between invasive carcinoma tissue and stroma. […]
Bioimgaing was performed relying on equipment described in ^42 using a 750 nm CW laser diode (BWF2-750-0, B & W Tek, Newark, Del., USA) with a maximum power of 300 mW was used to excite the fluorophores. […] The laser power was measured at a working distance of 15 cm at 85 mW/cm 2, which is lower than the maximum permissible exposure according to the standard of the American National Standards Institute (ANSI). A short-pass filter (E700SP, Chroma Technology, Rockingham, Vt., USA) was used to eliminate component of the field illumination NIRF signal to preclude interference between the fluorescence detection field and the field illumination light path (F1). […]
The measurements of the average fluorescence intensity/pixels were made in two regions of interests (ROIs). […]
The quotient ROI1/ROI2 of the average fluorescence intensity/pixel is given as tumor tissue to background ratio (TBR). […]

Data set [10] relates to HN cells. Kind of data set: cell binding experiment, fluorescence microscopy. The following applies: for fluorescence signal intensity on cells: fixed HN cells, 10 μM, 1 h at r.t. The format is cell-based, human. From the text: (§2) Human OSCC cell lines HN was purchased from the German Collection of Microorganisms and Cell Cultures, Braunschweig, Germany (DSMZ no. ACC 417 (HN) The HN cell line was established from a cervical lymph node metastasis of an invasive squamous cell carcinoma of the soft palate. The metastasis occurred 7 years after treatment of the primary tumour and metastasized to the lung and brain. ^49 As control cells, we used the human ovarian cancer cell line OVMZ6 with low integrin avb6 and high integrin αvβ3 expression. ^50 All cells were cultivated in Dulbecco's Modified Eagle's Medium (DMEM) (Sigma-Aldrich, St. Louis, Mo., USA), supplemented with 10% (v/v) fetal calf serum (FCS) (Gibco, Lifelechnologies™, Carlsbad, Calif., USA).
(§3) HN and OVMZ6 cells were cultivated for 24 h on fibronectin-coated microchamber slides at a density of 25×10^3/well, thereafter fixed in 2% (w/v) PFA for 15 min at r.t. and washed in PBS. The Cy5.5-conjugated compound OM_1231, dissolved in PBS, 5% (v/v) dimethyl sulfoxide (DMSO), was applied at a final concentration of 10 μM for 1 h at r.t., followed by 3 washes in PBS. […] As control peptide served the non-binding cycl(R^betaADfK) labelled via lysine side-chain NH2 group with Cy5.5 fluorescent dye (code OM_1224). After the incubation period, cells were washed 6 times in PBS and slides mounted. Fluorescence signal intensity was detected by the microscope Zeiss LSM 700 (Zeiss) as described above. Images were merged by applying for the fluorescence image the LUT “blue to red”: low intensity: blue; medium intensity: green; and high intensity: red.

In data set [11] the test system is OVMZ6 cells. Kind of data set: cell binding experiment, fluorescence microscopy. The format is cell-based, human. The following applies: fixed OVMZ6 cells (low αvβ6, high αvβ3), 10 μM.
Excerpt: as §2, §3

Where [12] appears, read: 0-24 h post injectionem, FIG. 5b.

Where a SMILES comes first, the peptide text is derived from it. Side-chain parts run from the residue outwards. [ ]: non-standard residue; d: D form. The star is where a group is joined. IRDye800CW = CC1(C)C(/C=C/C2=C(Oc3ccc(S(=O)(=O)O)cc3)C(=C/C=C3/N(CCCCS(=O)(=O)O)c4ccc(S(=O)(=O)O)cc4C3(C)C)/CCC2)=[N+](CCCCCC(=O)*)c2ccc(S(=O)(=O)[O-])cc21; NMeK = CN[C@@H](CCCCN)C(=O)O; Ahx = NCCCCCC(=O)O

Chain of α5β1 (P08648 42-894 limits assumed): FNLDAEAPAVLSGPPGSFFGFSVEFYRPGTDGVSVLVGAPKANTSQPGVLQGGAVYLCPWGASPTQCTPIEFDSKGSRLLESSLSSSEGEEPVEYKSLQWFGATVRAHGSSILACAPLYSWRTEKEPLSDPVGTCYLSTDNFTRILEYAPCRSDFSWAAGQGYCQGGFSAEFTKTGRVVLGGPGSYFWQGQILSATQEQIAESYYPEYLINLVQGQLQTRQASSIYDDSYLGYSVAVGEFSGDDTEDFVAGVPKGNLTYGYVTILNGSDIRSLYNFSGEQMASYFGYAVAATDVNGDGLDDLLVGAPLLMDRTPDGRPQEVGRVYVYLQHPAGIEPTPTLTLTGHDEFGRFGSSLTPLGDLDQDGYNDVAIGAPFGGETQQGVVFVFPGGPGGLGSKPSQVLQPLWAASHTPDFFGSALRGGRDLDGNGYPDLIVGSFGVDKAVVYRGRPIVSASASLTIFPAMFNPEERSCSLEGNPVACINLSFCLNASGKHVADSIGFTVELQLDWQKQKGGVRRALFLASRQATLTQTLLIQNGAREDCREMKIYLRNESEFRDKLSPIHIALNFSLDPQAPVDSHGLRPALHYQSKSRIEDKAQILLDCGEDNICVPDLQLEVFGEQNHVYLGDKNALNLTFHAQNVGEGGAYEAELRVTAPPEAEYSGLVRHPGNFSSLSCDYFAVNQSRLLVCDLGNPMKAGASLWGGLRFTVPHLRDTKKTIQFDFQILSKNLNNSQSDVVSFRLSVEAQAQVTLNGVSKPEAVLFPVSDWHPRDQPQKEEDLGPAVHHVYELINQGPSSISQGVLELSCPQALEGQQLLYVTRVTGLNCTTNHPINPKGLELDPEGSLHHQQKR
Chain of α5β1 (P08648 895-995 partner limits assumed): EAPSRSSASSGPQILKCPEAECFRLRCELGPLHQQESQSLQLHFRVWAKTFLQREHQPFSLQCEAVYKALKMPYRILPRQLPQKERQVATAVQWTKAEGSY
Chain of α5β1 (P05556 21-728 limits assumed): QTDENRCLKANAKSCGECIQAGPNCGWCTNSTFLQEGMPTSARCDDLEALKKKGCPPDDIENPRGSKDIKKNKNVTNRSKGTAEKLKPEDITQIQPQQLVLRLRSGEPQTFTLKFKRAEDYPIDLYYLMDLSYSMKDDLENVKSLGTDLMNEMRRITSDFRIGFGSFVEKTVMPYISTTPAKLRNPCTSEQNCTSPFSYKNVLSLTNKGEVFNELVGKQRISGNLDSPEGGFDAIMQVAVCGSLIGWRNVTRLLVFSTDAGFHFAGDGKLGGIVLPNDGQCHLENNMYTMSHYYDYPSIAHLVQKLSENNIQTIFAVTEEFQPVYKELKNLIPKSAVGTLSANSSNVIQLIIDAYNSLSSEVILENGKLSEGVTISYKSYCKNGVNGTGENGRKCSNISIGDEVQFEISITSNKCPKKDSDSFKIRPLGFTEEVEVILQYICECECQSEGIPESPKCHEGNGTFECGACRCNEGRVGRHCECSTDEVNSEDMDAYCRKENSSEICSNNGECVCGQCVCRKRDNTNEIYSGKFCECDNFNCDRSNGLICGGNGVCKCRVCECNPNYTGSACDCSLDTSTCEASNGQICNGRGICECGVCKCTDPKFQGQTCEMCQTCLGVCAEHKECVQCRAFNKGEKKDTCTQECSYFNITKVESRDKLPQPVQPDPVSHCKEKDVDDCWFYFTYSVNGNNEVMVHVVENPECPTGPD

For `CC(C)C[C@@H]1NC(=O)[C@H](CC(=O)O)NC(=O)CNC(=O)[C@H](CCCNC(=N)N)NC(=O)[C@H](Cc2ccccc2)NC(=O)[C@H](CCCCNC(=O)CCCCCNC(=O)CCCCC[N+]2=C(/C=C/C3=CC(=C/C=C4/N(C)c5ccc6ccccc6c5C4(C)C)/CCC3)C(C)(C)c3c2ccc2ccccc32)N(C)C(=O)[C@H]2CCCN2C(=O)[C@H](Cc2ccccc2)NC(=O)[C@H](C)NC1=O` [FRX103, cyc(FRGDLAFp(NMe)K(Ahx-Cy7.5))], the “time p.i. of best ratio between specific signal and background signal” value in data set [1] (i.v., HNSCC PDX mice) was found to be 24 h. The “accumulation in the area of carcinoma tissue” value in data set [1] (i.v., up to 24 h p.i., FIG. 5a) was “constant accumulation”. In data set [1] (mouse, in vivo, iv), the “elimination after 24 h” value is “does not show any elimination”. Further, in data set [2] (control TX (healthy epithelial grafting)), the “nonspecific accumulation in the area of transplantation” value is “no nonspecific accumulation”. Further, in data set [2] (mouse, in vivo), the “signal in liver and pancreas” value is listed as “persistent signal”.

As a reminder, the IC50 is the concentration at which inhibition is half-maximal. Low readings indicate higher potency, high ones lower potency. For the compound `CC(C)C[C@@H]1NC(=O)[C@H](CC(=O)O)NC(=O)[C@H](C)NC(=O)[C@H](CCCNC(=N)N)NC(=O)[C@H](Cc2ccccc2)NC(=O)[C@H](CCCCNC(=O)CCCCCNC(=O)CCCCC[N+]2=C(/C=C/C3=C(Oc4ccc(S(=O)(=O)O)cc4)C(=C/C=C4/N(CCCCS(=O)(=O)O)c5ccc(S(=O)(=O)O)cc5C4(C)C)/CCC3)C(C)(C)c3cc(S(=O)(=O)[O-])ccc32)N(C)C(=O)[C@H]2CCCN2C(=O)[C@H](Cc2ccccc2)NC(=O)[C@H](C)NC1=O` [FRX109, cyc(FRADLAFp(NMe)K(Ahx-IRDye ® 800CW))] (cyclo(FRADLAF[dP][NMeK]([Ahx-IRDye800CW]))), the IC50 in data set [3] is greater than 4 µM; in data set [4], greater than 1 µM; in data set [5] it was greater than 10 µM; in data set [6], greater than 10 µM; in [7], greater than 1 µM; in data set [8] it was 0.122 ± 0.012 µM. For the same compound, the renal clearance entry in data set [2] (FIG. 5c) is listed as “good renal clearance”.

The compound `CC(C)C[C@@H]1NC(=O)[C@H](CC(=O)O)NC(=O)CNC(=O)[C@H](CCCNC(=N)N)NC(=O)[C@H](Cc2ccccc2)NC(=O)[C@H](CCCCNC(=O)CCCCCNC(=O)CCCCC[N+]2=C(/C=C/C3=C(Oc4ccc(S(=O)(=O)O)cc4)C(=C/C=C4/N(CCCCS(=O)(=O)O)c5ccc(S(=O)(=O)O)cc5C4(C)C)/CCC3)C(C)(C)c3cc(S(=O)(=O)[O-])ccc32)N(C)C(=O)[C@H]2CCCN2C(=O)[C@H](Cc2ccccc2)NC(=O)[C@H](C)NC1=O` [FRX110, cyc(FRGDLAFp(NMe)K(Ahx-IRDye ® 800CW))] returned a TBR in [1] (setting [12]) of 1.0. Moreover, the “unspecific accumulation or binding” value in [1] (setting [12]) is “does not reveal unspecific accumulation or binding”. Further, in data set [1] (i.v.), the “time to elimination of unbound compound via the renal system” value is on record as no more than 24 h. For the same compound, the IC50 is 0.129 ± 0.036 µM in data set [3]; 0.037 ± 0.006 µM in [4]; 0.408 ± 0.061 µM in [5]; greater than 10 µM in data set [6]; 0.0022 ± 0.0002 µM in data set [8]. The “binding to invasive growing carcinoma xenotransplants” value in data set [9] (1st to 12th week p. TX) was “specific binding”. In addition, the “tissue to background (TBR) ratio” value was “high” in data set [9] (5th week p. TX, i.v. tail vein, FIG. 4a) and “low” in data set [2] (control animals, FIG. 5c). In addition, the renal clearance result in data set [2] (FIG. 5c) is reported as “good renal clearance”. The unspecific tracer enhancement entry in data set [2] (control animals, FIG. 5c) is listed as “without unspecific tracer enhancement”.

For `CC(C)C[C@@H]1NC(=O)[C@H](CC(=O)O)NC(=O)CNC(=O)[C@H](CCCNC(=N)N)NC(=O)[C@H](Cc2ccccc2)NC(=O)[C@H](CCCCNC(=O)CCCCCNC(=O)CCCCC[N+]2=C(/C=C/C=C/C=C3/N(C)c4ccc5ccccc5c4C3(C)C)C(C)(C)c3c2ccc2ccccc32)N(C)C(=O)[C@H]2CCCN2C(=O)[C@H](Cc2ccccc2)NC(=O)[C@H](C)NC1=O` [OM1231, cyc(FRGDLAFp(NMe)K(Ahx-Cy5.5))], the 50% inhibitory concentration (IC50) is 0.234 ± 0.033 µM in data set [3] and 0.027 ± 0.002 µM in data set [8]. The “fluorescence signal intensity after blocking” value in data set [10] (HN cells, unlabeled OM_1204 at 10-fold molar excess 1 h prior to OM_1231 (10 μM)) was “strong reduction in fluorescence signal intensity”. Besides, the “fluorescence signal intensity on cells” value in data set [10] was “strong fluorescence signal intensity on cell membranes”. In addition, the “recognition of cellular integrin αvβ3” value in data set [11] was “did not recognize cellular integrin αvβ3”.

On to “cyc(R-betaAla-D-f-K(Ahx-Cy5.5)) [OM1224]”, for which, in data set [10], the “fluorescence signal intensity on cells” value is “did not result in fluorescence signal intensity”.
